This note sets out measurements from US6673793B2, “Oxazinoquinolones useful for the treatment of viral infections” (Pharmacia & Upjohn Co., priority 2000, dated 2004).

The target in data set [1] is T1, CMV polymerase (Human cytomegalovirus, UniProt P08546).
T1 construct: made in house; host or cells: recombinant baculovirus-infected SF-9 cells
The data set is described as follows: HCMV polymerase assay, scintillation proximity assay (SPA), modified version. In kind it is biochemical. The settings on record: modified HCMV polymerase SPA assay: compounds diluted in 100% DMSO, 4.5 mM DTT in polymerase buffer, different lot of CMV polymerase; read-out: CMV polymerase IC50. As to the method:
The HCMV polymerase assay is performed using a scintillation proximity assay (SPA) as described in several references, such as N. D. Cook, et al., Pharmaceutical Manufacturing International, pages 49-53 (1992); K. Takeuchi, Laboratory Practice, September issue (1992); U.S. Pat. No. 4,568,649 (1986); which are incorporated by reference herein. Reactions are performed in 96-well plates. The assay is conducted in 100 μl volume with 5.4 mM HEPES (pH 7.5), 11.7 mM KCl, 4.5 mM MgCl2, 0.36 mg/ml BSA, and 90 nM ^3H-dTTP. Assays are run with and without CHAPS, (3-[(3-Cholamidopropyl)-dimethylammonio]-1-propane-sulfonate) at a final concentration of 2 mM. HCMV polymerase is diluted in enzyme dilution buffer containing 50% glycerol, 250 mM NaCl, 10 mM HEPES (pH 7.5), 100 μg/ml BSA, and 0.01% sodium azide. The HCMV polymerase, which is expressed in recombinant baculovirus-infected SF-9 cells and purified according to literature procedures, is added at 10% (or 10 μl) of the final reaction volume, i.e., 100 μl. Compounds are diluted in 50% DMSO and 10 μl are added to each well. Control wells contain an equivalent concentration of DMSO. Unless noted otherwise, reactions are initiated via the addition of 6 nM biotinylated poly(dA)-oligo(dT) template/primer to reaction mixtures containing the enzyme, substrate, and compounds of interest. Plates are incubated in a 25 C. or 37 C. H2O bath and terminated via the addition of 40 μl/reaction of 0.5 M EDTA (pH 8) per well. Reactions are terminated within the time-frame during which substrate incorporation is linear and varied depending upon the enzyme and conditions used, i.e., 30 min. for HCMV polymerase. Ten μl of streptavidin-SPA beads (20 mg/ml in PBS/10% glycerol) are added following termination of the reaction. Plates are incubated 10 min. at 37 C., then equilibrated to room temperature, and counted on a Packard Topcount. Linear regressions are performed and IC50's are calculated using computer software.
A modified version of the above HCMV polymerase assay is performed as described above, but with the following changes: Compounds are diluted in 100% DMSO until final dilution into assay buffer. In the previous assay, compounds are diluted in 50% DMSO. 4.5 mM dithiotherotol (DTT) is added to the polymerase buffer.
Background: Scintillation proximity formats need no separation of bound from free tracer.

T1 sequence (P08546 whole entry): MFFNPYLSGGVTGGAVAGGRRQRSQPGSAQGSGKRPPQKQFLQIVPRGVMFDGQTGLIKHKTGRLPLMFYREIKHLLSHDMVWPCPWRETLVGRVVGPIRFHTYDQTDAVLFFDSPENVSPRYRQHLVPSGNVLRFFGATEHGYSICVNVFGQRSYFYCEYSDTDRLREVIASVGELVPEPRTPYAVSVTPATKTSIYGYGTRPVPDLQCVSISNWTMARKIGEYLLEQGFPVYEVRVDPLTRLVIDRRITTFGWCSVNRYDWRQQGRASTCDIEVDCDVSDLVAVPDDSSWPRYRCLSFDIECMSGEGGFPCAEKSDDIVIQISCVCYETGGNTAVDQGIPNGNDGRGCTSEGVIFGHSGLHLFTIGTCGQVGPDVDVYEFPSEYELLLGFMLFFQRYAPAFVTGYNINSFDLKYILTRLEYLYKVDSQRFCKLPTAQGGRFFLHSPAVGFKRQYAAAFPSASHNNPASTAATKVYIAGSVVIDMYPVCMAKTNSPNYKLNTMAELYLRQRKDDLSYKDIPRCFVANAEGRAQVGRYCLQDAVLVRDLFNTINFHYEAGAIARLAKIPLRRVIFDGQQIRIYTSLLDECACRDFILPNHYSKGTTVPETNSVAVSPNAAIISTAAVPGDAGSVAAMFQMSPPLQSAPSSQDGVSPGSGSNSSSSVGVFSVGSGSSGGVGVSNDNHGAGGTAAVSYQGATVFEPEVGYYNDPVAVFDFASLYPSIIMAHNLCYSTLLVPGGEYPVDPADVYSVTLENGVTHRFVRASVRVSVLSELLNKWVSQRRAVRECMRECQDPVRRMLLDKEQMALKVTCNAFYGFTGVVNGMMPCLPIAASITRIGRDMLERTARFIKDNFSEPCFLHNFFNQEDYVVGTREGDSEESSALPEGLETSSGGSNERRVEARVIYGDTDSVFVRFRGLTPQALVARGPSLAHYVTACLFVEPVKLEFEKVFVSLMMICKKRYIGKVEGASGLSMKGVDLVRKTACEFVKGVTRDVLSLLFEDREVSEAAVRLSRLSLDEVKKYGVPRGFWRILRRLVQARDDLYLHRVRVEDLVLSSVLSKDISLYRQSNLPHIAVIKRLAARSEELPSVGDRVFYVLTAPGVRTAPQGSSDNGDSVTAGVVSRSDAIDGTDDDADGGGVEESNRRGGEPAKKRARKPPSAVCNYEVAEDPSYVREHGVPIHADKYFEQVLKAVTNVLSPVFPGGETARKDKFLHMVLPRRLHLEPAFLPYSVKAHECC

On to `O=C(NCc1ccc(Cl)cc1)c1cn2c3c(cc(CN4CCOCC4)cc3c1=O)OC(c1cc(F)cc(F)c1)C2` (stereo not shown) [Example 39, N-(4-Chlorobenzyl)-2-(3,5-difluorophenyl)-9-(morpholin-4-ylmethyl)-7-oxo-2,3-dihydro-7H-[1,4]oxazino[2,3,4-ij]quinoline-6-carboxamide], for which the melting point (commonly the temperature of the solid-liquid transition) was in the range of 234 to 236 °C. In addition, the 50% inhibitory concentration (IC50) – broadly, the concentration at which inhibition is half-maximal – in data set [1] was 330 nM.

As to `O=C(NCc1ccc(Cl)cc1)c1cn2c3c(cc(CN4CCOCC4)cc3c1=O)OC(c1ccc3c(c1)OCO3)C2` (stereo not shown) [Example 40, 2-(1,3-Benzodioxol-5-yl)-N-(4-chlorobenzyl)-9-(morpholin-4-ylmethyl)-7-oxo-2,3-dihydro-7H-[1,4]oxazino[2,3,4-ij]quinoline-6-carboxamide], the melting point lay within 227 to 231 °C. Further, the IC50 in data set [1] was 330 nM.

`O=C(NCc1ccc(Cl)cc1)c1cn2c3c(cc(CN4CCOCC4)cc3c1=O)OC(c1ccc3c(c1)OCCO3)C2` (stereo not shown) [Example 41, N-(4-Chlorobenzyl)-2-(2,3-dihydro-1,4-benzodioxin-6-yl)-9-(morpholin-4-ylmethyl)-7-oxo-2,3-dihydro-7H-[1,4]oxazino[2,3,4-ij]quinoline-6-carboxamide] displayed a melting point of 240 to 243 °C. The IC50 in data set [1] is 440 nM.

For the compound `O=C(NCc1ccc(Cl)cc1)c1cn2c3c(cc(CN4CCOCC4)cc3c1=O)OC(c1cccc3c1OCO3)C2` (stereo not shown) [Example 42, 2-(1,3-Benzodioxol-4-yl)-N-(4-chlorobenzyl)-9-(morpholin-4-ylmethyl)-7-oxo-2,3-dihydro-7H-[1,4]oxazino[2,3,4-ij]quinoline-6-carboxamide], the melting point was 221 to 225 °C (dec.). The concentration for half-maximal inhibition (IC50) in data set [1] was 200 nM.

In turn, `COCOc1cc(OCOC)cc(C2Cn3cc(C(=O)NCc4ccc(Cl)cc4)c(=O)c4cc(CN5CCOCC5)cc(c43)O2)c1` (stereo not shown) [Example 43, 2-[3,5-bis(Methoxymethoxy)phenyl]-N-(4-chlorobenzyl)-9-(morpholin-4-ylmethyl)-7-oxo-2,3-dihydro-7H-[1,4]oxazino[2,3,4-ij]quinoline-6-carboxamide] showed a melting point of 187 to 189 °C. Also, the half-maximal inhibitory concentration (IC50) in data set [1] was determined as 400 nM.

Compound `COCOc1cccc(C2Cn3cc(C(=O)NCc4ccc(Cl)cc4)c(=O)c4cc(CN5CCOCC5)cc(c43)O2)c1OCOC` (stereo not shown) [Example 44, 2-[2,3-bis(Methoxymethoxy)phenyl]-N-(4-chlorobenzyl)-9-(morpholin-4-ylmethyl)-7-oxo-2,3-dihydro-7H-[1,4]oxazino[2,3,4-ij]quinoline-6-carboxamide] had a melting point of 177 to 180 °C. In data set [1], the IC50 was determined as 1040 nM.

In the case of `O=C(NCc1ccc(Cl)cc1)c1cn2c3c(cc(CN4CCOCC4)cc3c1=O)OC(c1ccsc1)C2` (stereo not shown) [Example 45, N-(4-Chlorobenzyl)-9-(morpholin-4-ylmethyl)-7-oxo-2-thien-3-yl-2,3-dihydro-7H-[1,4]oxazino[2,3,4-ij]quinoline-6-carboxamide], the melting point is 241 to 245 °C (dec.). Further, the IC50 in data set [1] was found to be 410 nM.

In the case of `O=C(NCc1ccc(Cl)cc1)c1cn2c3c(cc(CN4CCOCC4)cc3c1=O)OC1(CCOCC1)C2` [Example 46, N-[(4-Chlorophenyl)methyl]-2,3,5,6-tetrahydro-9′-(4-morpholinylmethyl)-7′-oxospiro[4H-pyran-4,2′(3′H)-[7H]pyrido[1,2,3-de][1,4]benzoxazine]-6′-carboxamide], the melting point was in the range of 251 to 254 °C. In data set [1], the concentration for half-maximal inhibition (IC50) is 530 nM.

`CC(C)(C)OC(=O)N1CCC2(CC1)Cn1cc(C(=O)NCc3ccc(Cl)cc3)c(=O)c3cc(CN4CCOCC4)cc(c31)O2` [Example 47, 1,1-Dimethylethyl 6-[[[(4-chlorophenyl)methyl]amino]carbonyl]-9′-(4-morpholinylmethyl)-7′-oxospiro[piperidine-4,2′(3′H)-[7H]pyrido[1,2,3-de][1,4]benzoxazine]-1-carboxylate]: the melting point was 213 °C (dec.). Further, in data set [1], the IC50 came out at 830 nM.

As to `O=C(NCc1ccc(Cl)cc1)c1cn2c3c(cc(CN4CCOCC4)cc3c1=O)OC1(CCNCC1)C2` [Example 48, N-[(4-Chlorophenyl)methyl]-9′-(4-morpholinylmethyl)-7′-oxospiro[piperidine-4,2′(3′H)-[7H]pyrido[1,2,3-de][1,4]benzoxazine]-6′-carboxamide], the melting point is 246 to 250 °C (dec.). The IC50 in data set [1] was 2150 nM.

Consider `CN1CCC2(CC1)Cn1cc(C(=O)NCc3ccc(Cl)cc3)c(=O)c3cc(CN4CCOCC4)cc(c31)O2` [Example 49, N-[(4-Chlorophenyl)methyl]-1-methyl-9′-(4-morpholinylmethyl)-7′-oxospiro[piperidine-4,2′(3′H)-[7H]pyrido[1,2,3-de][1,4]benzoxazine]-6′-carboxamide], for which the melting point is 234 to 237 °C (dec.). Moreover, the IC50 in data set [1] is 2330 nM.

In the case of `O=C(NCc1ccc(Cl)cc1)c1cn2c3c(cc(CN4CCOCC4)cc3c1=O)OC1(CCC3(CC1)OCCO3)C2` [Example 50], the melting point is above 260 °C. Further, the IC50 in data set [1] is 1170 nM.

The compound `COCOCC1(COCOC)Cn2cc(C(=O)NCc3ccc(Cl)cc3)c(=O)c3cc(CN4CCOCC4)cc(c32)O1` [Example 51, N-(4-Chlorobenzyl)-2,2-bis[(methoxymethoxy)methyl]-9-(morpholin-4-ylmethyl)-7-oxo-2,3-dihydro-7H-[1,4]oxazino[2,3,4-ij]quinoline-6-carboxamide] gave a melting point of 147 to 149 °C. Further, the IC50 in data set [1] amounted to 750 nM.

On to `O=C(NCc1ccc(Cl)cc1)c1cn2c3c(cc(CN4CCOCC4)cc3c1=O)OC(CO)(CO)C2` [Example 52, N-(4-Chlorobenzyl)-2,2-bis(hydroxymethyl)-9-(morpholin-4-ylmethyl)-7-oxo-2,3-dihydro-7H-[1,4]oxazino[2,3,4-ij]quinoline-6-carboxamide], for which the melting point is 230 to 233 °C. Moreover, in data set [1], the half-maximal inhibitory concentration (IC50) came out at 810 nM.

`O=C(NCc1ccc(Cl)cc1)c1cn2c3c(cc(CN4CCOCC4)cc3c1=O)OC1(CCSCC1)C2` [Example 53, N-[(4-Chlorophenyl)methyl]-2′,3′,5′,6′-tetrahydro-9-(4-morpholinylmethyl)-7-oxospiro[7H-pyrido[1,2,3-de]-1,4-benzoxazine-2(3H),4′-[4H]thiopyran]-6-carboxamide] had a melting point of 147 to 149 °C. The IC50 in data set [1] came out at 530 nM.

With `O=C1CCC2(CC1)Cn1cc(C(=O)NCc3ccc(Cl)cc3)c(=O)c3cc(CN4CCOCC4)cc(c31)O2` [Example 54, N-[(4-Chlorophenyl)methyl]-9′-(4-morpholinylmethyl)-4,7′-dioxospiro[cyclohexane-1,2′(3′H)-[7H]pyrido[1,2,3-de][1,4]benzoxazine]-6′-carboxamide], the melting point lay in the range of 249.5 to 252 °C. Besides, the IC50 in data set [1] stood at 600 nM.

On to `O=C(NCc1ccc(Cl)cc1)c1cn2c3c(cc(CN4CCOCC4)cc3c1=O)OC1(CCC(O)CC1)C2` (stereo not shown) [Example 55, N-[(4-Chlorophenyl)methyl]-4-hydroxy-9′-(4-morpholinylmethyl)-7′-oxospiro[cyclohexane-1,2′(3′H)-[7H]pyrido[1,2,3-de][1,4]benzoxazine]-6′-carboxamide], for which the melting point fell in the range of 229 to 234 °C. The IC50 in data set [1] is 410 nM.

Take `Cn1ccnc1C1Cn2cc(C(=O)NCc3ccc(Cl)cc3)c(=O)c3cc(CN4CCOCC4)cc(c32)O1` (stereo not shown) [Example 59, N-(4-Chlorobenzyl)-2-(1-methyl-1H-imidazol-2-yl)-9-(morpholin-4-ylmethyl)-7-oxo-2,3-dihydro-7H-[1,4]oxazino[2,3,4-ij]quinoline-6-carboxamide]: the melting point was above 260 °C. For the same compound, the IC50 in data set [1] turned out to be 480 nM.

For the compound `O=C(NCc1ccc(Cl)cc1)c1cn2c3c(cc(CN4CCOCC4)cc3c1=O)OC(c1ccco1)C2` (stereo not shown) [Example 60, N-(4-Chlorobenzyl)-2-(2-furyl)-9-(morpholin-4-ylmethyl)-7-oxo-2,3-dihydro-7H-[1,4]oxazino[2,3,4-ij]quinoline-6-carboxamide], the melting point lay within 220 to 222.5 °C. Moreover, the IC50 in data set [1] came to 460 nM.

`COCOCc1cccc(C2Cn3cc(C(=O)NCc4ccc(Cl)cc4)c(=O)c4cc(CN5CCOCC5)cc(c43)O2)c1` (stereo not shown) [Example 61, N-(4-Chlorobenzyl)-2-{3-[(methoxymethoxy)methyl]phenyl}-9-(morpholin-4-ylmethyl)-7-oxo-2,3-dihydro-7H-[1,4]oxazino[2,3,4-ij]quinoline-6-carboxamide] gave a melting point of 186.5 to 189 °C. In addition, in data set [1], the IC50 was determined as 540 nM.
